Data: patent US11208443B2, “NAF-1 derived peptides and uses thereof” (YISSUM RESEARCH DEVELOPMENT COMPANY OF THE HEBREW …, priority 2017, dated 2021)
Non-standard residues stand in square brackets, D forms with d. Residues, ends and D or L forms follow the SMILES beside them.

Legend:
[1] = test system: PC3 (prostate cancer) spheroids; experiment: 3D spheroid cytotoxicity, Annexin V-red, IncuCyte; format: cell-based
Procedure: (§1) The MDA-MB-231 cells were plated in quadruplicate at 2×10^3 cells per well in a 96 well ULA plate (Corning 7007) and the cells were further cultured for 3 days to form spheroids. Then, the spheroids were treated with the peptides having SEQ ID NO:1 and the apoptosis of spheroids was assayed using Annexin V-red detection marker. Spheroids were imaged at ×10 magnification in an IncuCyte Zoom Live-cell analysis system (Essen Bioscience) at 37° C. with 5% CO2. Spheroid cell images were recorded every two hours and the resulting red colors, reflecting cell apoptosis, were analyzed with the IncuCyte software.)
(§2) Similarly to Example 2, the effect of D-PEP on “tumor like” 3D cancer cell spheroids of prostate cancer cells PC3 and MDA-MB-231, was tested and quantified. Annexin V-red apoptosis marker indicator was used to assess cytotoxicity and the cytotoxicity was calculated as integrated intensity over the surface (RCU×μm^2/Image).

[2] = Mice weight in xenograft study; format: in vivo; conditions: 135 μg/Kg IP or IT, days 18-30; all groups
Procedure: 30 female athymic nude (FOXN1NU) mice (5-6 weeks old) were injected subcutaneously (S.C.) with 2.5×10^6 MDA-MB-231 cells overexpressing NAF-1. Two and half weeks (day 18) after S.C. injection, mice weight and tumor size was measured. Mice were divided into three different treatment groups that were administrated 3 serial injections per week, on days 18, 21, 23, 25, 28, and 30. The groups were as follows: Group 1: Intraperitoneal (IP) injection of 135 μg/Kg D-PEP; Group 2: Intratumoral (IT) injection of PBS—control; and Group 3: Intratumoral (IT) injection of 135 μg/Kg D-PEP. On days 18, 21, 23, 25, 28 and 30 after S.C. injection of the tumor cells, tumor size and mice weight was measured in all groups.

chymotrypsin = experiment: Stability against protease cleavage, HPLC; format: in vitro ADME; conditions: 0.001 mg/ml protease, 22° C., FIG. 17A
Procedure: (§3) Stability of the D-PEP, and 3D-PEP, analogs, and of PEG-N-3D-PEP and PEG-C-3D-PEP conjugates against protease cleavage (chymotrypsin and trypsin) was tested and compared to stability of the native peptide having SEQ ID NO: 1. To peptides' stocks of 430 μl in concentration of 450 μM were added 0.001 mg/ml protease (Trypsin or Chymotrypsin) and incubated in room temperature (22° C.). Samples of 40 μl were taken before adding the protease and after every 15 min in the first hour, and after 2 […] and 24 h. To stop the proteolysis samples were added 7 μl of 2% TFA in TDW. The samples were added 60 μl TDW and were analyzed using analytical HPLC.

[3] = test system: MDA-MB-231 breast cancer spheroids; experiment: 3D spheroid apoptosis/cytotoxicity, Annexin V-red, IncuCyte; format: cell-based, human; conditions: incubated for 36 hours, 10 or 50 μM, FIG. 11
Procedure: as §1, §2

trypsin = experiment: Stability against protease cleavage, HPLC; format: in vitro ADME; conditions: 0.001 mg/ml protease, 450 μM peptide, 22° C.; FIG. 17B
Procedure: as §3

metabolised at 1400 min, 450 μM (chymotrypsin; chymotrypsin (isolated protease), after 1400 min, read-out: peptide degraded by chymotrypsin) [%]	time to complete degradation by chymotrypsin (chymotrypsin; 450 μM peptide) [min]	time to complete degradation by trypsin (trypsin) [min]	SMILES	cytotoxicity (total toxicity integrated intensity) ([1]; 10 μM, incubation for 8 hours, FIG. 7)	cytotoxicity (total toxicity integrated intensity) ([1]; 50 μM, 36 hour, compared to control, FIG. 8)	cytotoxicity (total toxicity integrated intensity) ([1]; 50 μM, incubation for 8 hours, FIG. 7)	mice weight [2]	cytotoxicity (total toxicity integrated intensity) [3]
20			CC(C)C[C@@H](NC(=O)[C@H](N)Cc1ccccc1)C(=O)NCC(=O)N[C@@H](C(=O)N[C@H](CC(C)C)C(=O)N[C@H](C)C(=O)N[C@H](CC(C)C)C(=O)N[C@H](CC(C)C)C(=O)NCC(=O)N[C@H](Cc1ccc(O)cc1)C(=O)N[C@H](CC(C)C)C(=O)N[C@H](C)C(=O)N[C@@H](C(=O)N[C@H](CCCNC(=N)N)C(=O)N1CCC[C@@H]1C(=O)N[C@H](Cc1ccccc1)C(=O)N[C@H](CC(C)C)C(=O)N1CCC[C@@H]1C(=O)N[C@H](CCCCN)C(=O)N[C@H](CCCCN)C(=O)N[C@H](CCCCN)C(=O)N[C@H](CCC(N)=O)C(=O)N[C@H](CCC(N)=O)C(=O)N[C@H](CCCCN)C(=O)O)C(C)C)C(C)C [D-PEP, flgvlallgylavrpflpkkkqqk] (H-[dF][dL]G[dV][dL][dA][dL][dL]G[dY][dL][dA][dV][dR][dP][dF][dL][dP][dK][dK][dK][dQ][dQ][dK]-OH; N-terminus and C-terminus assumed)	much more moderate	much more significant cytotoxic effect than 10 μM of D-PEP	substantial cytotoxic effect	not significant change in the weight of mice	comparable to that seen for PC3 cell
	~100	400	CC(C)C[C@H](NC(=O)[C@H](C)NC(=O)[C@H](CC(C)C)NC(=O)[C@@H](NC(=O)CNC(=O)[C@H](CC(C)C)NC(=O)[C@@H](N)Cc1ccccc1)C(C)C)C(=O)N[C@@H](CC(C)C)C(=O)NCC(=O)N[C@@H](Cc1ccc(O)cc1)C(=O)N[C@@H](CC(C)C)C(=O)N[C@@H](C)C(=O)N[C@H](C(=O)N[C@@H](CCCNC(=N)N)C(=O)N1CCC[C@H]1C(=O)N[C@@H](Cc1ccccc1)C(=O)N[C@@H](CC(C)C)C(=O)N1CCC[C@H]1C(=O)N[C@@H](CCCCN)C(=O)N[C@@H](CCCCN)C(=O)N[C@@H](CCCCN)C(=O)N[C@@H](CCC(N)=O)C(=O)N[C@@H](CCC(N)=O)C(=O)N[C@@H](CCCCN)C(=O)O)C(C)C [SEQ ID NO: 1] (H-FLGVLALLGYLAVRPFLPKKKQQK-OH; N-terminus and C-terminus assumed)					
